{"source": "ChEMBL document CHEMBL3853264", "about": "(Medchemcomm, 2016)", "key": {"[1]": {"target": "T1, Solute carrier family 22 member 12 (Homo sapiens, UniProt Q96S37)", "T1 sequence (Q96S37 whole entry)": "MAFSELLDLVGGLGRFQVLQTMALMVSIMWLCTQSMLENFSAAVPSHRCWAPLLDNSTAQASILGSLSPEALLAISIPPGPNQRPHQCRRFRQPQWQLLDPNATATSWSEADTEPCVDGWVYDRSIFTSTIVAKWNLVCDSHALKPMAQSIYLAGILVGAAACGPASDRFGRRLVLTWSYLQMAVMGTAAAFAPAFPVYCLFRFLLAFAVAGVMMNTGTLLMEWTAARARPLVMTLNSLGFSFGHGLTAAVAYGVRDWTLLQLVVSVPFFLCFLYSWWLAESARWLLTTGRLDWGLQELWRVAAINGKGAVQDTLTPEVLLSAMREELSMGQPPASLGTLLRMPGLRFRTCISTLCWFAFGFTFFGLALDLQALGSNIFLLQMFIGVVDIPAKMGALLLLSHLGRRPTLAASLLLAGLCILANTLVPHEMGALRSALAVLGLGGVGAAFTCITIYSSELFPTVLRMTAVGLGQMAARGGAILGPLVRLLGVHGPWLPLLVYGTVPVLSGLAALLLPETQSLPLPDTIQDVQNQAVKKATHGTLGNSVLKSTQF", "assay": "Inhibition of human C-terminal eGFP-tagged URAT1 long isoform expressed in CHO cells assessed as decrease in [14C]-uric acid uptake preincubated for 15 mins followed by [14C]-uric acid addition and incubated in dark for 3 hrs by scintillation counting method", "assay_type": "cell-based"}, "[2]": {"assay": "Intrinsic clearance in human liver microsomes", "assay_type": "ADME", "settings": "read-out: CLH"}, "[3]": {"assay": "Octanol-water partition co-efficient, log D of the compound by shake flask method", "assay_type": "physicochemical"}, "[4]": {"target": "T1, Solute carrier family 22 member 12", "assay": "Inhibition of URAT1 (unknown origin)"}, "[5]": {"assay": "Drug level in rat hepatocytes treated with 4-(3-chloro-4-(hydroxymethyl)phenoxy)-3-cyano-N-(5-fluoropyridin-2-yl)benzenesulfonamide", "assay_type": "ADME, cell-based, Hepatocyte"}}, "data": [{"smiles": "N#Cc1ccc(Oc2ccc(S(=O)(=O)Nc3ccccn3)cc2C#N)cc1Cl", "values": [{"measurement": "IC50", "setting": "[1]", "result": 115, "unit": "nM"}]}, {"smiles": "N#Cc1cc(Oc2ccc(S(=O)(=O)Nc3ccc(F)cn3)cc2C#N)ccc1Cl", "values": [{"measurement": "microsomal CLint", "setting": "[2]", "result": 134, "unit": "µL/min/mg"}, {"measurement": "logD", "setting": "[3]", "result": 2}]}, {"smiles": "CC(C)OC(=O)C(C)(C)Oc1ccc(C(=O)c2ccc(Cl)cc2)cc1", "note": "[FENOFIBRATE]", "values": [{"measurement": "IC50", "setting": "[4]", "result": "> 75000", "unit": "nM"}]}, {"smiles": "N#Cc1ccc(Oc2ccc(S(=O)(=O)Nc3ccc(F)cn3)cc2C#N)c(Cl)c1", "values": [{"measurement": "microsomal CLint", "setting": "[2]", "result": "< 8", "unit": "µL/min/mg"}, {"measurement": "logD", "setting": "[3]", "result": 1.9}]}, {"smiles": "N#Cc1ccc(Oc2ccc(S(=O)(=O)Nc3ccncn3)cc2C#N)cc1Cl", "values": [{"measurement": "IC50", "setting": "[1]", "result": 5150, "unit": "nM"}]}, {"smiles": "N#Cc1cc(S(=O)(=O)Nc2ccc(F)cn2)ccc1Oc1ccc(F)c(Cl)c1", "values": [{"measurement": "microsomal CLint", "setting": "[2]", "result": 163, "unit": "µL/min/mg"}, {"measurement": "logD", "setting": "[3]", "result": 2.3}]}, {"smiles": "CC(C)(Sc1ccncc1-c1ccc(C#N)c2ccccc12)C(=O)O", "values": [{"measurement": "IC50", "setting": "[4]", "result": 23, "unit": "nM"}]}, {"smiles": "N#Cc1cc(S(=O)(=O)Nc2ccc(F)cn2)ccc1Oc1ccc(CO[C@@H]2O[C@H](C(=O)O)[C@@H](O)[C@H](O)[C@H]2O)c(Cl)c1", "values": [{"measurement": "Drug metabolism", "setting": "[5]", "result": "Metabolite_Detected"}]}, {"smiles": "N#Cc1ccc(Oc2ccc(S(=O)(=O)Nc3ccc(F)cn3)cc2C#N)cc1", "values": [{"measurement": "microsomal CLint", "setting": "[2]", "result": "< 8", "unit": "µL/min/mg"}]}, {"smiles": "N#Cc1cccc(Oc2ccc(S(=O)(=O)Nc3ccc(F)cn3)cc2C#N)c1", "values": [{"measurement": "microsomal CLint", "setting": "[2]", "result": 65, "unit": "µL/min/mg"}]}]}
